Source: patent US20090156518A1, “STABLE PHARMACEUTICAL COMPOSITION COMPRISING BETA-LACTAM ANTIBIOTIC AND BUFFER” (priority 2006, published 2009)
One block for each compound: values may come before it.

Assay: amounts of β-lactam antibiotic, β-lactamase inhibitor (C18 reverse-phase LC, UV-VIS) and aminoglycoside (HPLC-ELSD) in solution over time
Format: physicochemical
[1] = Example 10: mezlocillin sodium 2 g, sulbactam sodium 0.5 g, etimicin sulfate 200 mg, citrate pH 6.5, 200 mL water, room temperature, Time 0 h
[2] = Example 10: mezlocillin sodium 2 g, sulbactam sodium 0.5 g, etimicin sulfate 200 mg, citrate pH 6.5, 200 mL water, room temperature, Time 1 h
[3] = Example 10: mezlocillin sodium 2 g, sulbactam sodium 0.5 g, etimicin sulfate 200 mg, citrate pH 6.5, 200 mL water, room temperature, Time 2 h
[4] = Example 11: freeze-dried mezlocillin sodium, sulbactam sodium, citrate pH 6.5, 7 days 0° C., in 100 mL 5% fructose + etimicin sulfate 200 mg, Time 0 h
[5] = Example 11: freeze-dried mezlocillin sodium, sulbactam sodium, citrate pH 6.5, 7 days 0° C., in 100 mL 5% fructose + etimicin sulfate 200 mg, Time 1 h
[6] = Example 11: freeze-dried mezlocillin sodium, sulbactam sodium, citrate pH 6.5, 7 days 0° C., in 100 mL 5% fructose + etimicin sulfate 200 mg, Time 2 h
[7] = Example 11: freeze-dried mezlocillin sodium, sulbactam sodium, citrate pH 6.5, 7 days 0° C., in 100 mL 5% fructose + etimicin sulfate 200 mg, Time 4 h
[8] = Example 11: freeze-dried mezlocillin sodium, sulbactam sodium, citrate pH 6.5, 7 days 0° C., in 100 mL 5% fructose + etimicin sulfate 200 mg, Time 6 h
[9] = Example 11: freeze-dried mezlocillin sodium, sulbactam sodium, citrate pH 6.5, 7 days 0° C., in 100 mL 5% fructose + etimicin sulfate 200 mg, Time 8 h

Description: The amounts of β-lactam antibiotics and β-lactamase inhibitor were determined using C18 reverse-phase LC and UV-VIS detector (Tianjin Hemay BioTech Co., Ltd., analysis method No. HM-K-03). The content of aminoglycoside antibiotics was measured using reverse-phase HPLC and evaporation-light-scattering detector (ELSD detector) (Tianjin Hemay BioTech Co., Ltd., analysis method No. HM-K-08). The amount of antibiotic component at each time point was expressed as a percentage with respect to the amount at the initial time (herein defined as 100%). The relative amount of each antibiotic component in the composition at each time point was expressed as peak area ratio with respect to the corresponding peak area of an external standard.

amount of component as percentage with respect to the amount at the initial time (Example 7: ceftriaxone sodium 4 g, sulbactam sodium 1 g, gentamicin sulfate 80 mg, citrate pH 6.75, 200 mL water, room temperature (22° C.), Time 0 h): 97.01%
amount of component as percentage with respect to the amount at the initial time (Example 7: ceftriaxone sodium 4 g, sulbactam sodium 1 g, gentamicin sulfate 80 mg, citrate pH 6.75, 200 mL water, room temperature (22° C.), Time 1 h): 100.3%
amount of component as percentage with respect to the amount at the initial time (Example 7: ceftriaxone sodium 4 g, sulbactam sodium 1 g, gentamicin sulfate 80 mg, citrate pH 6.75, 200 mL water, room temperature (22° C.), Time 2 h): 96.40%
amount of component as percentage with respect to the amount at the initial time (Example 7: ceftriaxone sodium 4 g, sulbactam sodium 1 g, gentamicin sulfate 80 mg, citrate pH 6.75, 200 mL water, room temperature (22° C.), Time 4 h): 99.01%
amount of component as percentage with respect to the amount at the initial time (Example 7: ceftriaxone sodium 4 g, sulbactam sodium 1 g, gentamicin sulfate 80 mg, citrate pH 6.75, 200 mL water, room temperature (22° C.), Time 6 h): 98.91%
amount of component as percentage with respect to the amount at the initial time (Example 7: ceftriaxone sodium 4 g, sulbactam sodium 1 g, gentamicin sulfate 80 mg, citrate pH 6.75, 200 mL water, room temperature (22° C.), Time 8 h): 99.53%
amount of component as percentage with respect to the amount at the initial time (Example 8: freeze-dried ceftriaxone sodium, tazobactam sodium, gentamicin sulfate, citrate pH 6.75, 2.5% fructose, 7 days 0° C., in 100 mL water, Time 0 h): 98.75%
amount of component as percentage with respect to the amount at the initial time (Example 8: freeze-dried ceftriaxone sodium, tazobactam sodium, gentamicin sulfate, citrate pH 6.75, 2.5% fructose, 7 days 0° C., in 100 mL water, Time 1 h): 100.1%
amount of component as percentage with respect to the amount at the initial time (Example 8: freeze-dried ceftriaxone sodium, tazobactam sodium, gentamicin sulfate, citrate pH 6.75, 2.5% fructose, 7 days 0° C., in 100 mL water, Time 2 h): 99.97%
amount of component as percentage with respect to the amount at the initial time (Example 8: freeze-dried ceftriaxone sodium, tazobactam sodium, gentamicin sulfate, citrate pH 6.75, 2.5% fructose, 7 days 0° C., in 100 mL water, Time 4 h): 98.87%
amount of component as percentage with respect to the amount at the initial time (Example 8: freeze-dried ceftriaxone sodium, tazobactam sodium, gentamicin sulfate, citrate pH 6.75, 2.5% fructose, 7 days 0° C., in 100 mL water, Time 6 h): 99.27%
amount of component as percentage with respect to the amount at the initial time (Example 8: freeze-dried ceftriaxone sodium, tazobactam sodium, gentamicin sulfate, citrate pH 6.75, 2.5% fructose, 7 days 0° C., in 100 mL water, Time 8 h): 100.5%
amount of component as percentage with respect to the amount at the initial time (Example 9: freeze-dried ceftriaxone sodium, citrate pH 6.75, 7 days 0° C., in 100 mL 5% fructose solution, Time 0 h): 97.27%
amount of component as percentage with respect to the amount at the initial time (Example 9: freeze-dried ceftriaxone sodium, citrate pH 6.75, 7 days 0° C., in 100 mL 5% fructose solution, Time 1 h): 99.38%
amount of component as percentage with respect to the amount at the initial time (Example 9: freeze-dried ceftriaxone sodium, citrate pH 6.75, 7 days 0° C., in 100 mL 5% fructose solution, Time 2 h): 99.95%
amount of component as percentage with respect to the amount at the initial time (Example 9: freeze-dried ceftriaxone sodium, citrate pH 6.75, 7 days 0° C., in 100 mL 5% fructose solution, Time 4 h): 97.81%
amount of component as percentage with respect to the amount at the initial time (Example 9: freeze-dried ceftriaxone sodium, citrate pH 6.75, 7 days 0° C., in 100 mL 5% fructose solution, Time 6 h): 99.03%
amount of component as percentage with respect to the amount at the initial time (Example 9: freeze-dried ceftriaxone sodium, citrate pH 6.75, 7 days 0° C., in 100 mL 5% fructose solution, Time 8 h): 98.51%
amount of component as percentage with respect to the amount at the initial time (Example 19: ceftriaxone sodium 2 g, sulbactam sodium 2 g, gentamicin sulfate 160 mg, citrate pH 6.75, 200 mL water, room temperature, Time 0 h): 97.01%
amount of component as percentage with respect to the amount at the initial time (Example 19: ceftriaxone sodium 2 g, sulbactam sodium 2 g, gentamicin sulfate 160 mg, citrate pH 6.75, 200 mL water, room temperature, Time 1 h): 100.3%
amount of component as percentage with respect to the amount at the initial time (Example 19: ceftriaxone sodium 2 g, sulbactam sodium 2 g, gentamicin sulfate 160 mg, citrate pH 6.75, 200 mL water, room temperature, Time 2 h): 96.40%
amount of component as percentage with respect to the amount at the initial time (Example 19: ceftriaxone sodium 2 g, sulbactam sodium 2 g, gentamicin sulfate 160 mg, citrate pH 6.75, 200 mL water, room temperature, Time 4 h): 99.01%
amount of component as percentage with respect to the amount at the initial time (Example 19: ceftriaxone sodium 2 g, sulbactam sodium 2 g, gentamicin sulfate 160 mg, citrate pH 6.75, 200 mL water, room temperature, Time 6 h): 98.91%
amount of component as percentage with respect to the amount at the initial time (Example 19: ceftriaxone sodium 2 g, sulbactam sodium 2 g, gentamicin sulfate 160 mg, citrate pH 6.75, 200 mL water, room temperature, Time 8 h): 99.53%
amount of component as percentage with respect to the amount at the initial time (Example 20: ceftriaxone sodium 2 g, tazobactam sodium 2 g, gentamicin sulfate 160 mg, citrate pH 6.75, 200 mL water, room temperature, Time 0 h): 98.75%
amount of component as percentage with respect to the amount at the initial time (Example 20: ceftriaxone sodium 2 g, tazobactam sodium 2 g, gentamicin sulfate 160 mg, citrate pH 6.75, 200 mL water, room temperature, Time 1 h): 100.1%
amount of component as percentage with respect to the amount at the initial time (Example 20: ceftriaxone sodium 2 g, tazobactam sodium 2 g, gentamicin sulfate 160 mg, citrate pH 6.75, 200 mL water, room temperature, Time 2 h): 99.97%
amount of component as percentage with respect to the amount at the initial time (Example 20: ceftriaxone sodium 2 g, tazobactam sodium 2 g, gentamicin sulfate 160 mg, citrate pH 6.75, 200 mL water, room temperature, Time 4 h): 98.87%
amount of component as percentage with respect to the amount at the initial time (Example 20: ceftriaxone sodium 2 g, tazobactam sodium 2 g, gentamicin sulfate 160 mg, citrate pH 6.75, 200 mL water, room temperature, Time 6 h): 99.27%
amount of component as percentage with respect to the amount at the initial time (Example 20: ceftriaxone sodium 2 g, tazobactam sodium 2 g, gentamicin sulfate 160 mg, citrate pH 6.75, 200 mL water, room temperature, Time 8 h): 100.5%
SMILES: CO/N=C(\C(=O)N[C@@H]1C(=O)N2C(C(=O)O)=C(CSc3nc(=O)c(=O)[nH]n3C)CS[C@H]12)c1csc(N)n1 [Ceftriaxone sodium]

amount of component as percentage with respect to the amount at the initial time (Example 6: freeze-dried cefoperazone sodium 4 g, sulbactam sodium 1 g, citrate pH 6.75, + etimicin sulfate 200 mg, 7 days 0° C., dissolved in 100 mL water, Time 0 h): 108.9%
amount of component as percentage with respect to the amount at the initial time (Example 6: freeze-dried cefoperazone sodium 4 g, sulbactam sodium 1 g, citrate pH 6.75, + etimicin sulfate 200 mg, 7 days 0° C., dissolved in 100 mL water, Time 1 h): 100.2%
amount of component as percentage with respect to the amount at the initial time (Example 6: freeze-dried cefoperazone sodium 4 g, sulbactam sodium 1 g, citrate pH 6.75, + etimicin sulfate 200 mg, 7 days 0° C., dissolved in 100 mL water, Time 2 h): 100.5%
amount of component as percentage with respect to the amount at the initial time (Example 6: freeze-dried cefoperazone sodium 4 g, sulbactam sodium 1 g, citrate pH 6.75, + etimicin sulfate 200 mg, 7 days 0° C., dissolved in 100 mL water, Time 4 h): 100.4%
amount of component as percentage with respect to the amount at the initial time (Example 6: freeze-dried cefoperazone sodium 4 g, sulbactam sodium 1 g, citrate pH 6.75, + etimicin sulfate 200 mg, 7 days 0° C., dissolved in 100 mL water, Time 6 h): 100.4%
amount of component as percentage with respect to the amount at the initial time (Example 6: freeze-dried cefoperazone sodium 4 g, sulbactam sodium 1 g, citrate pH 6.75, + etimicin sulfate 200 mg, 7 days 0° C., dissolved in 100 mL water, Time 8 h): 97.50%
amount of component as percentage with respect to the amount at the initial time [1]: 100.1%
amount of component as percentage with respect to the amount at the initial time [2]: 100.6%
amount of component as percentage with respect to the amount at the initial time [3]: 99.79%
amount of component as percentage with respect to the amount at the initial time [4]: 100.1%
amount of component as percentage with respect to the amount at the initial time [5]: 100.4%
amount of component as percentage with respect to the amount at the initial time [6]: 99.31%
amount of component as percentage with respect to the amount at the initial time [7]: 99.56%
amount of component as percentage with respect to the amount at the initial time [8]: 99.61%
amount of component as percentage with respect to the amount at the initial time [9]: 99.25%
SMILES: CCN[C@@H]1C[C@H](N)[C@@H](O[C@H]2O[C@H](CN)CC[C@H]2N)[C@H](O)[C@H]1O[C@H]1OC[C@](C)(O)[C@H](NC)[C@H]1O.O=S(=O)(O)O [Etimicin sulfate, etimicin sulfate]

amount of component as percentage with respect to the amount at the initial time [1]: 96.48%
amount of component as percentage with respect to the amount at the initial time [2]: 95.90%
amount of component as percentage with respect to the amount at the initial time [3]: 71.70%
amount of component as percentage with respect to the amount at the initial time (Example 10: mezlocillin sodium 2 g, sulbactam sodium 0.5 g, etimicin sulfate 200 mg, citrate pH 6.5, 200 mL water, room temperature, Time 4 h): 91.78%
amount of component as percentage with respect to the amount at the initial time (Example 10: mezlocillin sodium 2 g, sulbactam sodium 0.5 g, etimicin sulfate 200 mg, citrate pH 6.5, 200 mL water, room temperature, Time 6 h): 93.08%
amount of component as percentage with respect to the amount at the initial time (Example 10: mezlocillin sodium 2 g, sulbactam sodium 0.5 g, etimicin sulfate 200 mg, citrate pH 6.5, 200 mL water, room temperature, Time 8 h): 97.69%
amount of component as percentage with respect to the amount at the initial time [4]: 116.6%
amount of component as percentage with respect to the amount at the initial time [5]: 94.83%
amount of component as percentage with respect to the amount at the initial time [6]: 91.86%
amount of component as percentage with respect to the amount at the initial time [7]: 91.96%
amount of component as percentage with respect to the amount at the initial time [8]: 91.52%
amount of component as percentage with respect to the amount at the initial time [9]: 98.56%
amount of component as percentage with respect to the amount at the initial time (Example 13: freeze-dried mezlocillin sodium, citrate pH 6, 7 days 0° C., in 100 mL 5% fructose + etimicin sulfate 200 mg, Time 0 h): 95.05%
amount of component as percentage with respect to the amount at the initial time (Example 13: freeze-dried mezlocillin sodium, citrate pH 6, 7 days 0° C., in 100 mL 5% fructose + etimicin sulfate 200 mg, Time 1 h): 96.63%
amount of component as percentage with respect to the amount at the initial time (Example 13: freeze-dried mezlocillin sodium, citrate pH 6, 7 days 0° C., in 100 mL 5% fructose + etimicin sulfate 200 mg, Time 2 h): 89.33%
amount of component as percentage with respect to the amount at the initial time (Example 13: freeze-dried mezlocillin sodium, citrate pH 6, 7 days 0° C., in 100 mL 5% fructose + etimicin sulfate 200 mg, Time 4 h): 98.72%
amount of component as percentage with respect to the amount at the initial time (Example 13: freeze-dried mezlocillin sodium, citrate pH 6, 7 days 0° C., in 100 mL 5% fructose + etimicin sulfate 200 mg, Time 6 h): 92.73%
amount of component as percentage with respect to the amount at the initial time (Example 13: freeze-dried mezlocillin sodium, citrate pH 6, 7 days 0° C., in 100 mL 5% fructose + etimicin sulfate 200 mg, Time 8 h): 92.51%
SMILES: CC1(C)S[C@@H]2[C@H](NC(=O)[C@H](NC(=O)N3CCN(S(C)(=O)=O)C3=O)c3ccccc3)C(=O)N2[C@H]1C(=O)O [Mezlocillin sodium]
